The source of these data is patent US12161722B2, “Bifunctional heterocyclic compound having BTK degradation function via ubiquitin proteasome pathway, and use thereof” (KOREA RESEARCH INSTITUTE OF CHEMICAL TECHNOLOGY, priority 2021, dated 2024).

SMILES strings stand for the structures.

The target in the assay is T1, WT BTK protein (Homo sapiens, UniProt Q06187).
T1 construct: measured for intracellular BTK protein levels by Western blotting; endogenous in cells; host or cells: TMD-8 or RAMOS cells
T1 sequence (Q06187 whole entry): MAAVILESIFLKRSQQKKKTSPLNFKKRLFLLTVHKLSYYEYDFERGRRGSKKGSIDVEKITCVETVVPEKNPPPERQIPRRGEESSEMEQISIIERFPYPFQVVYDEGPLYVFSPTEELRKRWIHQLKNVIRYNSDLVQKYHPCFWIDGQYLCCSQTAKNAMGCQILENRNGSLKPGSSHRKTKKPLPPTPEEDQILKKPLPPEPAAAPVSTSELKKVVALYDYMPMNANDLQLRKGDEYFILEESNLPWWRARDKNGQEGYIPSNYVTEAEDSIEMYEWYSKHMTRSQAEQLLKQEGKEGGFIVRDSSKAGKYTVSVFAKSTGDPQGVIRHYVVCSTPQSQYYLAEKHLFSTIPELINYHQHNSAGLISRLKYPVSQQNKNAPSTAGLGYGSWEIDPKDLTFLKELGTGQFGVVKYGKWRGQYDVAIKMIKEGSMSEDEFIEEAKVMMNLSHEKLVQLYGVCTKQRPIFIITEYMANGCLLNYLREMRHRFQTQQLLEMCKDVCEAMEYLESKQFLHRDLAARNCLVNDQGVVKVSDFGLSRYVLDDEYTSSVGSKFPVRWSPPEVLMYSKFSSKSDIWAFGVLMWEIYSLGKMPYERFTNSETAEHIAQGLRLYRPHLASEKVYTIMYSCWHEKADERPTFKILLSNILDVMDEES
Nature of the assay: BTK protein degradation assay (Western blotting), WT BTK. Format: cell-based. The conditions noted are these: concentration range accounting for 50% degradation of WT BTK protein, TMD-8 or RAMOS cells, 24 hours. In outline: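 BTK levels were read by Western blotting (GAPDH and β-actin normalisers) in RIPA lysates of TMD-8 cells exposed to compounds for 24 h at 1×10^6 cells/mL. Results scored in ranges of the concentration producing 50% loss of WT BTK.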
(Immunoblotting shows a protein as a band on a membrane.)
Broadly, the DC50 is the midpoint of the concentration-degradation curve. In the case of `Cc1cccc(C)c1Nc1nn(C)c2nc(Nc3ccc4c(c3)CN(CC3CCN(c5cc6c(cc5F)C(=O)N(C5CCC(=O)NC5=O)C6=O)CC3)CC4)ncc12` (stereo not shown) [Compound 208, 5-(4-((7-((3-((2,6-Dimethylphenyl)amino)-1-methyl-1H-pyrazolo[3,4-d]pyrimidin-6-yl)amino)-3,4-dihydroisoquinolin-2 (1H)-yl)methyl)piperidin-1-yl)-2-(2,6-dioxopiperidin-3-yl)-6-fluoroisoindoline-1,3-dione], the half-maximal degradation concentration (DC50) was in the range of 0.1 to 10 nM.
Then `Cc1cccc(C)c1Nc1nn(C)c2nc(Nc3ccc(F)c(C4=CCN(CC5CCN(c6ccc7c(c6)C(=O)N(C6CCC(=O)NC6=O)C7=O)CC5)CC4)c3)ncc12` (stereo not shown) [Compound 250, 5-(4-((4-(5-((3-((2,6-Dimethylphenyl)amino)-1-methyl-1H-pyrazolo[3,4-d]pyrimidin-6-yl)amino)-2-fluorophenyl)-3,6-dihydropyridin-1 (2H)-yl)methyl)piperidin-1-yl)-2-(2,6-dioxopiperidin-3-yl)isoindoline-1,3-dione], with 0.1 to 10 nM; and `Cc1cccc(C)c1Nc1nn(C)c2nc(Nc3ccc(N4CCN(CC5CN(c6ccc7c(c6)C(=O)N(C6CCC(=O)NC6=O)C7=O)C5)CC4)nc3)ncc12` (stereo not shown) [Compound 159, 5-(3-((4-(5-((3-((2,6-dimethylphenyl)amino)-1-methyl-1H-pyrazolo[3,4-d]pyrimidin-6-yl)amino)pyridin-2-yl)piperazin-1-yl)methyl)azetidin-1-yl)-2-(2,6-dioxopiperidin-3-yl)isoindoline-1,3-dione], with 0.1 to 10 nM.
The result for `Cc1cccc(C)c1Nc1nn(C)c2nc(Nc3ccc4c(c3)CN(C(=O)[C@@H]3CCCN3C(=O)CN3CCN(c5ccc6c(c5)C(=O)N(C5CCC(=O)NC5=O)C6=O)CC3)CC4)ncc12` (stereo partly drawn) [Compound 33, 5-(4-(2-((S)-2-(7-((3-((2,6-Dimethylphenyl)amino)-1-methyl-1H-pyrazolo[3,4-d]pyrimidin-6-yl)amino)-1,2,3,4-tetrahydroisoquinoline-2-carbonyl)pyrrolidin-1-yl)-2-oxoethyl)piperazin-1-yl)-2-(2,6-dioxopiperidin-3-yl)isoindoline-1,3-dione] reads 10 to 1000 nM; that for `Cc1cccc(C)c1Nc1nn(C)c2nc(Nc3ccc4c(c3)CN(CCC3CCN(c5ccc6c(c5)C(=O)N(C5CCC(=O)NC5=O)C6=O)CC3)CC4)ncc12` (stereo not shown) [Compound 146, 5-(4-(2-(7-((3-((2,6-Dimethylphenyl)amino)-1-methyl-1H-pyrazolo[3,4-d]pyrimidin-6-yl)amino)-3,4-dihydroisoquinolin-2 (1H)-yl)ethyl)piperidin-1-yl)-2-(2,6-dioxopiperidin-3-yl)isoindoline-1,3-dione], 0.1 to 10 nM.
Consider `Cc1cccc(C)c1Nc1nn(C)c2nc(Nc3ccc4c(c3)CN(CC3CN(C(=O)CNc5ccc6c(c5)C(=O)N(C5CCC(=O)NC5=O)C6=O)C3)CC4)ncc12` (stereo not shown) [Compound 51, 5-((2-(3-((7-((3-((2,6-Dimethylphenyl)amino)-1-methyl-1H-pyrazolo[3,4-d]pyrimidin-6-yl)amino)-3,4-dihydroisoquinolin-2 (1H)-yl)methyl)azetidin-1-yl)-2-oxoethyl)amino)-2-(2,6-dioxopiperidin-3-yl)isoindoline-1,3-dione], for which the DC50 was 0.1 to 10 nM.
Consider `Cc1cccc(C)c1Nc1nn(C)c2nc(Nc3ccc4c(c3)CN(C(=O)C3CCN(C(=O)CNc5ccc6c(c5)C(=O)N(C5CCC(=O)NC5=O)C6=O)CC3)CC4)ncc12` (stereo not shown) [Compound 45, 5-((2-(4-(7-((3-((2,6-Dimethylphenyl)amino)-1-methyl-1H-pyrazolo[3,4-d]pyrimidin-6-yl)amino)-1,2,3,4-tetrahydroisoquinoline-2-carbonyl)piperidin-1-yl)-2-oxoethyl)amino)-2-(2,6-dioxopiperidin-3-yl)isoindoline-1,3-dione], for which the DC50 is 0.1 to 10 nM.
The result for `Cc1cccc(C)c1Nc1nn(C)c2nc(Nc3ccc4c(c3)CN(C(=O)CNCc3ccc5c(c3)CN(C3CCC(=O)NC3=O)C5=O)CC4)ncc12` (stereo not shown) [Compound 98, 3-(5-(((2-(7-((3-((2,6-Dimethylphenyl)amino)-1-methyl-1H-pyrazolo[3,4-d]pyrimidin-6-yl)amino)-3,4-dihydroisoquinolin-2 (1H)-yl)-2-oxoethyl)amino)methyl)-1-oxoisoindolin-2-yl)piperidin-2,6-one] reads 0.1 to 10 nM; that for `Cc1cccc(C)c1Nc1nn(C)c2nc(Nc3ccc(N4CCN(C[C@H]5CCN(c6ccc7c(c6)C(=O)N(C6CCC(=O)NC6=O)C7=O)C5)CC4)cc3)ncc12` (stereo partly drawn) [Compound 179, 5-((R)-3-((4-(4-((3-((2,6-Dimethylphenyl)amino)-1-methyl-1H-pyrazolo[3,4-d]pyrimidin-6-yl)amino)phenyl)piperazin-1-yl)methyl)pyrrolidin-1-yl)-2-(2,6-dioxopiperidin-3-yl)isoindoline-1,3-dione], 0.1 to 10 nM.
Then `Cc1cccc(C)c1Nc1nn(C)c2nc(Nc3cccc(CNCC4CCN(C(=O)C5CCN(c6ccc7c(c6)C(=O)N(C6CCC(=O)NC6=O)C7=O)CC5)CC4)c3)ncc12` (stereo not shown) [Compound 42, 5-(4-(4-(((3-((3-((2,6-Dimethylphenyl)amino)-1-methyl-1H-pyrazolo[3,4-d]pyrimidin-6-yl)amino)benzyl)amino)methyl)piperidine-1-carbonyl)piperidin-1-yl)-2-(2,6-dioxopiperidin-3-yl)isoindoline-1,3-dione], with 0.1 to 10 nM; and `Cc1cccc(C)c1Nc1nn(C)c2nc(Nc3ccc4c(c3)CN(CC3CCN(C(=O)Cc5cccc(NC6=CC(=O)N(C7CCC(=O)NC7=O)C6=O)c5)CC3)CC4)ncc12` (stereo not shown) [Compound 193, 3-(3-((3-(2-(4-((7-((3-((2,6-Dimethylphenyl)amino)-1-methyl-1H-pyrazolo[3,4-d]pyrimidin-6-yl)amino)-3,4-dihydroisoquinolin-2 (1H)-yl)methyl)piperidin-1-yl)-2-oxoethyl)phenyl)amino)-2,5-dioxo-2,5-dihydro-1H-pyrrol-1-yl)piperidin-2,6-one], with 0.1 to 10 nM.
Consider `Cc1cccc(C)c1Nc1nn(C)c2nc(Nc3ccc(C4CCN(C(=O)C5CN(c6ccc7c(c6)C(=O)N(C6CCC(=O)NC6=O)C7=O)C5)CC4)cc3)ncc12` (stereo not shown) [Compound 228, 5-(3-(4-(4-((3-((2,6-dimethylphenyl)amino)-1-methyl-1H-pyrazolo[3,4-d]pyrimidin-6-yl)amino)phenyl)piperidine-1-carbonyl)azetidin-1-yl)-2-(2,6-dioxopiperidin-3-yl)isoindoline-1,3-dione], for which the half-maximal degradation concentration (DC50) was in the range of 0.1 to 10 nM.
Then `Cc1cccc(C)c1Nc1nn(C)c2nc(Nc3ccc4c(c3)CN(CC(=O)N3CCC(Oc5ccc6c(c5)C(=O)N(C5CCC(=O)NC5=O)C6)CC3)CC4)ncc12` (stereo not shown) [Compound 116, 3-(6-((1-(2-(7-((3-((2,6-dimethylphenyl)amino)-1-methyl-1H-pyrazolo[3,4-d]pyrimidin-6-yl)amino)-3,4-dihydroisoquinolin-2 (1H)-yl)acetyl)piperidin-4-yl)oxy)-1-oxoisoindolin-2-yl)piperidin-2,6-one], with 1000 to 10000 nM; and `Cc1cccc(C)c1Nc1nn(C)c2nc(Nc3ccc(C4CCN(CC5CCN(c6ccc7c(c6)C(=O)N(C6CCC(=O)NC6=O)C7=O)CC5)CC4)nc3)ncc12` (stereo not shown) [Compound 164, 5-(4-((4-(5-((3-((2,6-Dimethylphenyl)amino)-1-methyl-1H-pyrazolo[3,4-d]pyrimidin-6-yl)amino)pyridin-2-yl)piperidin-1-yl)methyl)piperidin-1-yl)-2-(2,6-dioxopiperidin-3-yl)isoindoline-1,3-dione], with 0.1 to 10 nM; and `Cc1cccc(C)c1Nc1nn(C)c2nc(Nc3ccc4c(c3)CCN(C[C@@H]3CCN(c5ccc6c(c5)C(=O)N(C5CCC(=O)NC5=O)C6=O)C3)C4)ncc12` (stereo partly drawn) [Compound 174, 5-((S)-3-((6-((3-((2,6-Dimethylphenyl)amino)-1-methyl-1H-pyrazolo[3,4-d]pyrimidin-6-yl)amino)-3,4-dihydroisoquinolin-2 (1H)-yl)methyl)pyrrolidin-1-yl)-2-(2,6-dioxopiperidin-3-yl)isoindoline-1,3-dione], with 0.1 to 10 nM.
The result for `Cc1cccc(C)c1Nc1nn(C)c2nc(Nc3ccc(C4CCN(C(=O)C5CN(c6ccc7c(c6)C(=O)N(C6CCC(=O)NC6=O)C7=O)C5)CC4)c(F)c3)ncc12` (stereo not shown) [Compound 229, 5-(3-(4-(4-((3-((2,6-dimethylphenyl)amino)-1-methyl-1H-pyrazolo[3,4-d]pyrimidin-6-yl)amino)-2-fluorophenyl)piperidine-1-carbonyl)azetidin-1-yl)-2-(2,6-dioxopiperidin-3-yl)isoindoline-1,3-dione] reads 10 to 1000 nM; that for `Cc1cccc(C)c1Nc1nn(C)c2nc(Nc3ccc(N4CCN(CC5CN(c6ccc7c(c6)C(=O)N(C6CCC(=O)NC6=O)C7=O)C5)C[C@@H]4C)cc3)ncc12` (stereo partly drawn) [Compound 183, 5-(3-(((S)-4-(4-((3-((2,6-Dimethylphenyl)amino)-1-methyl-1H-pyrazolo[3,4-d]pyrimidin-6-yl)amino)phenyl)-3-methylpiperazin-1-yl)methyl)azetidin-1-yl)-2-(2,6-dioxopiperidin-3-yl)isoindoline-1,3-dione], 0.1 to 10 nM.
The result for `Cc1cccc(C)c1Nc1nn(C)c2nc(Nc3ccc(N4CCN(CC5CN(c6ccc7c(c6)C(=O)N(C6CCC(=O)NC6=O)C7=O)C5)C[C@H]4C)cc3)ncc12` (stereo partly drawn) [Compound 184, 5-(3-(((R)-4-(4-((3-((2,6-Dimethylphenyl)amino)-1-methyl-1H-pyrazolo[3,4-d]pyrimidin-6-yl)amino)phenyl)-3-methylpiperazin-1-yl)methyl)azetidin-1-yl)-2-(2,6-dioxopiperidin-3-yl)isoindoline-1,3-dione] reads 0.1 to 10 nM.
On to `Cc1cccc(C)c1Nc1nn(C)c2nc(Nc3ccc(N4CCN(C5CCN(c6ccc7c(c6)C(=O)N(C6CCC(=O)NC6=O)C7=O)CC5)CC4)nc3)ncc12` (stereo not shown) [Compound 156, 5-(4-(4-(5-((3-((2,6-dimethylphenyl)amino)-1-methyl-1H-pyrazolo[3,4-d]pyrimidin-6-yl)amino)pyridin-2-yl)piperazin-1-yl)piperidin-1-yl)-2-(2,6-dioxopiperidin-3-yl)isoindoline-1,3-dione], for which the DC50 fell in the range of 0.1 to 10 nM.
